Laboratory results published in the NIST ThermoML archive (doi:10.1016/j.jct.2007.01.010).
± gives the expanded uncertainty stated by the source.

Experiments:
[1] = xn = mol fraction of the nth substance listed; settings: 101 kPa, Liquid
[2] = 101 kPa, Liquid

In the case of `CCOC(C)(C)C` [2-ethoxy-2-methylpropane] + CCOCCOCCOCCO, the viscosity ([1]; 293.15 K, x1 = 1) is reported as 0.532 ± 0.007 mPa·s, the viscosity ([1]; 298.15 K, x1 = 1) is reported as 0.504 ± 0.007 mPa·s and the viscosity ([1]; 303.15 K, x1 = 1) is reported as 0.478 ± 0.007 mPa·s.
Compound `CCOCCOCCO` [3,6-dioxa-1-octanol] has a viscosity ([2]; 293.15 K) of 4.464 ± 0.066 mPa·s, a viscosity ([2]; 298.15 K) of 3.976 ± 0.059 mPa·s and a viscosity ([2]; 303.15 K) of 3.531 ± 0.053 mPa·s.
`CCOCCO` [2-ethoxyethan-1-ol] showed a viscosity ([2]; 293.15 K) of 2.142 ± 0.027 mPa·s, a viscosity ([2]; 298.15 K) of 1.848 ± 0.023 mPa·s and a viscosity ([2]; 303.15 K) of 1.646 ± 0.021 mPa·s.
Work on `CCOCCO` [2-ethoxyethan-1-ol] + CCOC(C)(C)C yielded a viscosity ([1]; 293.15 K, x2 = 0) of 2.142 ± 0.027 mPa·s, a viscosity ([1]; 298.15 K, x2 = 0) of 1.848 ± 0.023 mPa·s and a viscosity ([1]; 303.15 K, x2 = 0) of 1.646 ± 0.021 mPa·s.
For `CCOCCOCCO` [3,6-dioxa-1-octanol] + CCOC(C)(C)C, the viscosity ([1]; 293.15 K, x2 = 0) was 4.464 ± 0.066 mPa·s, the viscosity ([1]; 293.15 K, x2 = 0.05) was 3.992 ± 0.058 mPa·s and the viscosity ([1]; 293.15 K, x2 = 0.1) was 3.505 ± 0.05 mPa·s. For the same compound, the viscosity ([1]; 293.15 K, x2 = 0.1501) was 3.037 ± 0.043 mPa·s, the viscosity ([1]; 293.15 K, x2 = 0.2) was 2.637 ± 0.037 mPa·s and the viscosity ([1]; 293.15 K, x2 = 0.2498) was 2.289 ± 0.031 mPa·s. It also gave a viscosity ([1]; 293.15 K, x2 = 0.2999) of 1.991 ± 0.027 mPa·s, a viscosity ([1]; 293.15 K, x2 = 0.3497) of 1.744 ± 0.023 mPa·s and a viscosity ([1]; 293.15 K, x2 = 0.3999) of 1.526 ± 0.02 mPa·s. It also gave a viscosity ([1]; 293.15 K, x2 = 0.4502) of 1.343 ± 0.018 mPa·s, a viscosity ([1]; 293.15 K, x2 = 0.5002) of 1.184 ± 0.016 mPa·s and a viscosity ([1]; 293.15 K, x2 = 0.55) of 1.049 ± 0.014 mPa·s. It also gave a viscosity ([1]; 293.15 K, x2 = 0.5997) of 0.932 ± 0.012 mPa·s, a viscosity ([1]; 293.15 K, x2 = 0.6504) of 0.832 ± 0.011 mPa·s and a viscosity ([1]; 293.15 K, x2 = 0.7003) of 0.749 ± 0.01 mPa·s. For the same compound, the viscosity ([1]; 293.15 K, x2 = 0.7503) was 0.682 ± 0.009 mPa·s, the viscosity ([1]; 293.15 K, x2 = 0.7998) was 0.63 ± 0.009 mPa·s and the viscosity ([1]; 293.15 K, x2 = 0.8498) was 0.591 ± 0.008 mPa·s. The viscosity ([1]; 293.15 K, x2 = 0.9) was 0.563 ± 0.008 mPa·s, the viscosity ([1]; 293.15 K, x2 = 0.95) was 0.545 ± 0.007 mPa·s and the viscosity ([1]; 298.15 K, x2 = 0) was 3.976 ± 0.059 mPa·s. It also gave a viscosity ([1]; 298.15 K, x2 = 0.05) of 3.574 ± 0.052 mPa·s, a viscosity ([1]; 298.15 K, x2 = 0.1) of 3.156 ± 0.045 mPa·s and a viscosity ([1]; 298.15 K, x2 = 0.1501) of 2.746 ± 0.039 mPa·s. For the same compound, the viscosity ([1]; 298.15 K, x2 = 0.2) was 2.398 ± 0.033 mPa·s, the viscosity ([1]; 298.15 K, x2 = 0.2498) was 2.093 ± 0.029 mPa·s and the viscosity ([1]; 298.15 K, x2 = 0.2999) was 1.828 ± 0.025 mPa·s. For the same compound, the viscosity ([1]; 298.15 K, x2 = 0.3497) was 1.605 ± 0.022 mPa·s, the viscosity ([1]; 298.15 K, x2 = 0.3999) was 1.413 ± 0.019 mPa·s and the viscosity ([1]; 298.15 K, x2 = 0.4502) was 1.245 ± 0.017 mPa·s. It also gave a viscosity ([1]; 298.15 K, x2 = 0.5002) of 1.103 ± 0.015 mPa·s, a viscosity ([1]; 298.15 K, x2 = 0.55) of 0.979 ± 0.013 mPa·s and a viscosity ([1]; 298.15 K, x2 = 0.5997) of 0.872 ± 0.012 mPa·s. It also gave a viscosity ([1]; 298.15 K, x2 = 0.6504) of 0.78 ± 0.01 mPa·s, a viscosity ([1]; 298.15 K, x2 = 0.7003) of 0.704 ± 0.009 mPa·s and a viscosity ([1]; 298.15 K, x2 = 0.7503) of 0.643 ± 0.009 mPa·s. It also gave a viscosity ([1]; 298.15 K, x2 = 0.7998) of 0.596 ± 0.008 mPa·s, a viscosity ([1]; 298.15 K, x2 = 0.8498) of 0.562 ± 0.008 mPa·s and a viscosity ([1]; 298.15 K, x2 = 0.9) of 0.536 ± 0.007 mPa·s. For the same compound, the viscosity ([1]; 298.15 K, x2 = 0.95) was 0.519 ± 0.007 mPa·s, the viscosity ([1]; 303.15 K, x2 = 0) was 3.531 ± 0.053 mPa·s and the viscosity ([1]; 303.15 K, x2 = 0.05) was 3.192 ± 0.047 mPa·s. The viscosity ([1]; 303.15 K, x2 = 0.1) was 2.836 ± 0.041 mPa·s, the viscosity ([1]; 303.15 K, x2 = 0.1501) was 2.49 ± 0.035 mPa·s and the viscosity ([1]; 303.15 K, x2 = 0.2) was 2.183 ± 0.031 mPa·s. It also gave a viscosity ([1]; 303.15 K, x2 = 0.2498) of 1.912 ± 0.026 mPa·s, a viscosity ([1]; 303.15 K, x2 = 0.2999) of 1.683 ± 0.023 mPa·s and a viscosity ([1]; 303.15 K, x2 = 0.3497) of 1.48 ± 0.02 mPa·s. It also gave a viscosity ([1]; 303.15 K, x2 = 0.3999) of 1.312 ± 0.018 mPa·s, a viscosity ([1]; 303.15 K, x2 = 0.4502) of 1.16 ± 0.016 mPa·s and a viscosity ([1]; 303.15 K, x2 = 0.5002) of 1.03 ± 0.014 mPa·s. For the same compound, the viscosity ([1]; 303.15 K, x2 = 0.55) was 0.918 ± 0.012 mPa·s, the viscosity ([1]; 303.15 K, x2 = 0.5997) was 0.82 ± 0.011 mPa·s and the viscosity ([1]; 303.15 K, x2 = 0.6504) was 0.736 ± 0.01 mPa·s. It also gave a viscosity ([1]; 303.15 K, x2 = 0.7003) of 0.667 ± 0.009 mPa·s, a viscosity ([1]; 303.15 K, x2 = 0.7503) of 0.611 ± 0.008 mPa·s and a viscosity ([1]; 303.15 K, x2 = 0.7998) of 0.568 ± 0.008 mPa·s. For the same compound, the viscosity ([1]; 303.15 K, x2 = 0.8498) was 0.536 ± 0.007 mPa·s, the viscosity ([1]; 303.15 K, x2 = 0.9) was 0.512 ± 0.007 mPa·s and the viscosity ([1]; 303.15 K, x2 = 0.95) was 0.495 ± 0.007 mPa·s.
Compound `CCOC(C)(C)C` [2-ethoxy-2-methylpropane] has a viscosity ([2]; 293.15 K) of 0.532 ± 0.007 mPa·s, a viscosity ([2]; 298.15 K) of 0.504 ± 0.007 mPa·s and a viscosity ([2]; 303.15 K) of 0.478 ± 0.007 mPa·s.
